Test systems include U251 CNS; 786-0 renal; SNB-75 CNS; NCI-H23 lung; HCC-2998 colon; HT29 colon; NCI-H522 lung; MOLT-4 leukemia; OVCAR-3 ovarian; SF-295 CNS.
Experiment in all cases: inhibition of tumour cell growth, NCI panel, 48 h

The record followed here is PubChem BioAssay (NCI).

Where “and” joins values, the source holds several entries; their conditions need not be identical. Equal entries are not always repeated.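 1) Cells in 96-well plates. 2) Compound, 48 h, 5 concentrations. 3) Linear interpolation between surrounding doses. 4) Unreached endpoint = highest concentration. At the GI50, growth is halved. TGI marks complete inhibition of growth.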

As for `O=c1c(-c2ccccc2)coc2cc(OC/C(=N/O)c3ccccc3)ccc12`, the GI50 in the test on U251 CNS is 21.4 µM; with 786-0 renal it was 25.4 µM; in the test with SNB-75 CNS it was 22.9 µM; with NCI-H23 lung it was more than 100 µM; in the test with HCC-2998 colon, 10.1 µM; in the test on HT29 colon, 14.7 µM. The GI50 is 7.54 µM in the test with NCI-H522 lung, 12.4 µM in the test on MOLT-4 leukemia, 24.7 µM in the test on OVCAR-3 ovarian and 29.5 µM in the test on SF-295 CNS. Moreover, the TGI in the test on U251 CNS was 56.1 µM; with 786-0 renal it was 50.4 µM; in the test on SNB-75 CNS, 79.2 µM; in the test with NCI-H23 lung, more than 100 µM; in the test on HCC-2998 colon it was 27.2 µM; with HT29 colon, 53.2 µM. The TGI is 64.4 µM with NCI-H522 lung, more than 100 µM in the test with MOLT-4 leukemia, 60.1 µM with OVCAR-3 ovarian and 74.9 µM in the test on SF-295 CNS.
In the case of `COc1ccc(OCC(=O)O)c(C(=O)CCC(=O)O)c1`, the TGI in the test with U251 CNS, with 786-0 renal, in the test with SNB-75 CNS, in the test on NCI-H23 lung, with HCC-2998 colon and in the test with HT29 colon was more than 100 µM each time. Also, the TGI with NCI-H522 lung was more than 100 µM; in the test on MOLT-4 leukemia, more than 100 µM; in the test with OVCAR-3 ovarian, more than 10 µM; with SF-295 CNS it was more than 100 µM.
In the case of `CCOC(=O)c1c2c(n3ccccc13)C(=O)c1ncccc1C2=O`, the GI50 with U251 CNS is 0.0329 µM; in the test on 786-0 renal, 0.18 µM; with SNB-75 CNS, 0.818 µM; in the test with NCI-H23 lung it was 0.0617 µM; in the test with HCC-2998 colon, 0.877 µM; in the test with HT29 colon, 1.63 µM. Besides, the GI50 in the test with NCI-H522 lung is 0.419 µM; with MOLT-4 leukemia it was 2.43 µM; with OVCAR-3 ovarian it was 0.03 µM; with SF-295 CNS, 1.31 µM. For the same molecule, the TGI with U251 CNS came out at 1.96 µM; in the test with 786-0 renal, 13.8 µM; in the test on SNB-75 CNS it was 13 µM; in the test with NCI-H23 lung, 5.75 µM; in the test on HCC-2998 colon, 14.3 µM; in the test with HT29 colon, 5.68 µM. Also, the TGI was found to be 3.72 µM in the test with NCI-H522 lung, 76.8 µM with MOLT-4 leukemia, 0.945 µM in the test on OVCAR-3 ovarian and 11.3 µM in the test on SF-295 CNS.
Take `NCCCNCCCCNC(=O)C(O)NC(=O)CCCCCCN=C(N)N` (centres undefined): the GI50 was 2080 µM in the test on U251 CNS; more than 750 µM in the test on 786-0 renal; more than 1870 µM in the test on SNB-75 CNS; 2330 µM in the test on NCI-H23 lung; 2720 µM with HCC-2998 colon; more than 3580 µM with HT29 colon. The GI50 in the test on NCI-H522 lung is 1350 µM; in the test on MOLT-4 leukemia, 1620 µM; in the test with OVCAR-3 ovarian it was 1750 µM; in the test with SF-295 CNS it was 1400 µM. The TGI in the test with U251 CNS was 636 µM and > 4540 µM; in the test with 786-0 renal, more than 5000 µM; with SNB-75 CNS it was 671 µM and > 3170 µM; with NCI-H23 lung, 750 µM and > 5000 µM; in the test on HCC-2998 colon it was more than 4260 µM; in the test on HT29 colon it was more than 5000 µM. Further, the TGI is 636 µM and 2860 µM in the test on NCI-H522 lung; 750 µM and > 4510 µM in the test with MOLT-4 leukemia; 750 µM and > 5000 µM with OVCAR-3 ovarian; 608 µM and > 4710 µM with SF-295 CNS.
Turning to `Cc1cc(C)cc(NC(N)=S)c1`, the TGI in the test with U251 CNS, in the test on 786-0 renal, in the test with SNB-75 CNS, with NCI-H23 lung, in the test with HCC-2998 colon and in the test on HT29 colon was more than 100 µM in each case. The TGI in the test with NCI-H522 lung, in the test with MOLT-4 leukemia, in the test with OVCAR-3 ovarian and in the test with SF-295 CNS was more than 100 µM in each case.
In the case of `O=C1C(=O)c2cccnc2-c2ncccc21`, the GI50 in the test with U251 CNS was 0.131 µM; with 786-0 renal it was 1.22 µM; with SNB-75 CNS it was 0.123 µM; with NCI-H23 lung, 0.319 µM; with HCC-2998 colon, 1.32 µM; in the test with HT29 colon, 1.04 µM. The GI50 with NCI-H522 lung is 0.126 µM; in the test with MOLT-4 leukemia, 0.171 µM; in the test with OVCAR-3 ovarian, 0.193 µM; in the test with SF-295 CNS, 0.295 µM. Further, the TGI with U251 CNS amounted to 0.674 µM; with 786-0 renal, 2.5 µM; in the test with SNB-75 CNS, 1.4 µM; in the test on NCI-H23 lung, 1.3 µM; in the test on HCC-2998 colon it was 2.92 µM; in the test on HT29 colon it was 2.33 µM. Further, the TGI is 0.332 µM in the test on NCI-H522 lung, 0.509 µM with MOLT-4 leukemia, 0.503 µM in the test on OVCAR-3 ovarian and 0.946 µM with SF-295 CNS.
Consider `Cc1cccc(NC(=O)c2cccc([N+](=O)[O-])c2O)c1C`, for which the TGI is more than 100 µM with U251 CNS; more than 100 µM in the test with 786-0 renal; 81.1 µM with SNB-75 CNS; 62.9 µM in the test on NCI-H23 lung; more than 100 µM with HCC-2998 colon; more than 100 µM in the test on HT29 colon. For the same molecule, the TGI in the test with NCI-H522 lung is 58 µM; in the test on MOLT-4 leukemia, more than 92.7 µM; in the test on OVCAR-3 ovarian it was more than 100 µM; in the test on SF-295 CNS, 80.1 µM.
As for `Cc1cn(-c2cc(NC(=O)c3ccc(C)c(Nc4nccc(-c5cccnc5)n4)c3)cc(C(F)(F)F)c2)cn1`, the GI50 with U251 CNS was 2.97 µM and 2.47 µM; in the test with 786-0 renal it was > 10 µM and 2.24 µM; in the test on SNB-75 CNS it was 8.04 µM and 3.47 µM; in the test with NCI-H23 lung, 7.35 µM and 6.5 µM; with HT29 colon, 1.7 µM and 1.94 µM; in the test with NCI-H522 lung it was 3.46 µM and 4.18 µM. Moreover, the GI50 in the test on MOLT-4 leukemia is 3.21 µM and 1.6 µM; in the test with OVCAR-3 ovarian, 5.77 µM and 4.38 µM; with SF-295 CNS, 3.16 µM and 2.78 µM. Besides, the TGI was > 10 µM and 7.32 µM with U251 CNS; > 10 µM and 7.1 µM in the test on 786-0 renal; > 10 µM and 11.5 µM in the test on SNB-75 CNS; > 10 µM and 30 µM in the test with NCI-H23 lung; more than 65 µM with HCC-2998 colon; > 10 µM and 9.13 µM with HT29 colon. Moreover, the TGI was > 10 µM and 24.4 µM with NCI-H522 lung; more than 37.2 µM in the test with MOLT-4 leukemia; > 10 µM and 11.5 µM in the test on OVCAR-3 ovarian; > 10 µM and 11.3 µM in the test with SF-295 CNS.
In the case of `N#CC1CC2(CCN1C(=O)c1ccccc1)OCCO2` (centres undefined), the TGI in the test with U251 CNS, in the test on 786-0 renal, with SNB-75 CNS, in the test with NCI-H23 lung, in the test with HCC-2998 colon and with HT29 colon was more than 100 µM each time. Besides, the TGI in the test with NCI-H522 lung was 78.2 µM; in the test with MOLT-4 leukemia, more than 100 µM; in the test with OVCAR-3 ovarian it was more than 100 µM; in the test on SF-295 CNS, more than 100 µM.
For the molecule `CN(C)c1ccc(/C=C/c2cc[n+](C)c(/C=C/c3ccc(N(C)C)cc3)c2)cc1`, the GI50 was 0.286 µM in the test on U251 CNS; 0.387 µM with 786-0 renal; 0.253 µM with SNB-75 CNS; 0.194 µM with NCI-H23 lung; 0.381 µM in the test with HCC-2998 colon; 0.274 µM with HT29 colon. In addition, the GI50 with NCI-H522 lung was 0.267 µM; in the test with MOLT-4 leukemia, 0.388 µM; in the test with OVCAR-3 ovarian it was 0.337 µM; with SF-295 CNS, 0.27 µM. The TGI in the test on U251 CNS came to 1.41 µM; in the test with 786-0 renal it was 1.7 µM; with SNB-75 CNS it was 2.33 µM; in the test with NCI-H23 lung, 1.21 µM; with HCC-2998 colon, 1.97 µM; with HT29 colon, 2.65 µM. The TGI was 1.72 µM in the test with NCI-H522 lung, 3.53 µM with MOLT-4 leukemia, 1.56 µM in the test on OVCAR-3 ovarian and 1.32 µM in the test on SF-295 CNS.
For `COc1ccccc1NC(=O)CC(=O)N/N=C/c1ccc(N(CCC#N)S(=O)(=O)c2ccccc2)cc1`, the TGI in the test on U251 CNS, in the test on 786-0 renal, with SNB-75 CNS, in the test with NCI-H23 lung, in the test on HCC-2998 colon and with HT29 colon was more than 100 µM each time. For the same molecule, the TGI with NCI-H522 lung, in the test with MOLT-4 leukemia, in the test with OVCAR-3 ovarian and in the test with SF-295 CNS was more than 100 µM each time.
On to `CCCCCCCc1cc2c3c(nc4ccccc42)C(=O)c2cccnc2-c3n1`, for which the GI50 is 2.96 µM in the test on U251 CNS; 5.1 µM in the test with 786-0 renal; 5.11 µM in the test with SNB-75 CNS; 10.8 µM in the test with NCI-H23 lung; 2.93 µM with HCC-2998 colon; 5.99 µM with HT29 colon. Further, the GI50 in the test with NCI-H522 lung is 1.14 µM; in the test with MOLT-4 leukemia, 1.54 µM; in the test with OVCAR-3 ovarian, 2.3 µM; in the test with SF-295 CNS it was 3.45 µM. Besides, the TGI worked out at 8.05 µM with U251 CNS; 10.5 µM in the test with 786-0 renal; 10.1 µM in the test on SNB-75 CNS; 25.6 µM in the test with NCI-H23 lung; 7.56 µM in the test on HCC-2998 colon; 27.7 µM with HT29 colon. The TGI in the test on NCI-H522 lung is 3.07 µM; with MOLT-4 leukemia, more than 20.2 µM; in the test with OVCAR-3 ovarian it was 8.97 µM; in the test on SF-295 CNS, 7.32 µM.
Take `COC(=O)Nc1nc2ccc(Br)cc2[nH]1`: the TGI is 87 µM in the test with U251 CNS; more than 100 µM with 786-0 renal; more than 100 µM in the test with SNB-75 CNS; 80.7 µM in the test with NCI-H23 lung; more than 100 µM in the test with HCC-2998 colon; 37.4 µM with HT29 colon. The TGI with NCI-H522 lung was 32.8 µM; in the test on MOLT-4 leukemia it was more than 100 µM; with OVCAR-3 ovarian, 82.5 µM; in the test with SF-295 CNS, more than 100 µM.
With `CCOC(=O)c1[nH]c(COC(C)=O)c2c1CCCCCCCCCC2`, the TGI in the test on U251 CNS, in the test on 786-0 renal, in the test on SNB-75 CNS, in the test on NCI-H23 lung, in the test on HCC-2998 colon and in the test on HT29 colon was more than 100 µM in each case. In addition, the TGI in the test with NCI-H522 lung, in the test with MOLT-4 leukemia, in the test on OVCAR-3 ovarian and with SF-295 CNS was more than 100 µM in each case.
As to `C=CCC1C(=O)CC2(C)CC(=O)C(CC=C)C12C` (centres undefined), the TGI in the test with U251 CNS, with 786-0 renal, in the test on SNB-75 CNS, in the test with NCI-H23 lung, in the test on HCC-2998 colon and in the test on HT29 colon was more than 100 µM each time. Moreover, the TGI with NCI-H522 lung, with MOLT-4 leukemia, in the test with OVCAR-3 ovarian and in the test with SF-295 CNS was more than 100 µM throughout.
Consider `CC1(C)C2C=CC1C(=O)CC2` (centres undefined), for which the TGI in the test with U251 CNS, with 786-0 renal, in the test with SNB-75 CNS, in the test on NCI-H23 lung, with HCC-2998 colon and in the test on HT29 colon was more than 100 µM in each case. For the same molecule, the TGI in the test with NCI-H522 lung, with MOLT-4 leukemia, in the test on OVCAR-3 ovarian and with SF-295 CNS was more than 100 µM throughout.
